Measurements from patent publication US20230271941A1, “COMPOUNDS AND COMPOSITIONS FOR TREATING CONDITIONS ASSOCIATED WITH STING ACTIVITY” (IFM Due, Inc., priority 2020, published 2023).

target: T1, hSTING (Homo sapiens, UniProt Q86WV6, G230A/H232R/R293Q/R71H); assay: STING reporter assay: THP1-Dual KO-IFNAR2 cells stimulated with 2′3′cGAMP, luciferase reporter activity; format: cell-based; conditions: 15 μM 2′3′cGAMP transfected with Lipofectamine 2000, 24 h, luciferase reporter (QUANTI-Luc)
T1 construct: host or cells: THP1-Dual KO-IFNAR2 cells
Method: STING pathway activation by the compounds described herein was measured using THP1-Dual™ cells (KO-IFNAR2).
THP1-Dual™ KO-IFNAR2 Cells (obtained from invivogen) were maintained in RPMI, 10% FCS, 5 ml P/S, 2 mM L-glut, 10 mM Hepes, and 1 mM sodium pyruvate. Compounds were spotted in empty 384 well tissue culture plates (Greiner 781182) by Echo for a final concentration of 0.0017-100 μM. Cells were plated into the TC plates at 40 μL per well, 2×10E6 cells/mL. For activation with STING ligand, 2′3′cGAMP (MW 718.38, obtained from Invivogen), was prepared in Optimem media.
The following solutions were prepared for each 1×384 plate: • Solution A: 2 mL Optimem with one of the following stimuli: • 60 μL of 10 mM 2′3′cGAMP→150 μM stock • Solution B: 2 mL Optimem with 60 μL Lipofectamine 2000→Incubate 5 min at RT
2 mL of solution A and 2 ml Solution B was mixed and incubated for 20 min at room temperature (RT). 20 μL of transfection solution (A+B) was added on top of the plated cells, with a final 2′3′cGAMP concentration of 15 μM. The plates were then centrifuged immediately at 340 g for 1 minute, after which they were incubated at 37° C., 5% CO2, >98% humidity for 24 h. Luciferase reporter activity was then measured. EC50 values were calculated by using standard methods known in the art.
Luciferase reporter assay: 10 μL of supernatant from the assay was transferred to white 384-plate with flat bottom and squared wells. One pouch of QUANTI-Luc™ Plus was dissolved in 25 mL of water. 100 μL of QLC Stabilizer per 25 mL of QUANTI-Luc™Plus solution was added. 50 μL of QUANTI-Luc™ Plus/QLC solution per well was then added. Luminescence was measured on a Platereader (e.g., Spectramax I3X (Molecular Devices GF3637001)).
Luciferase reporter activity was then measured. EC50 values were calculated by using standard methods known in the art.

T1 sequence (Q86WV6 whole entry R71H/G230A/H232R/R293Q): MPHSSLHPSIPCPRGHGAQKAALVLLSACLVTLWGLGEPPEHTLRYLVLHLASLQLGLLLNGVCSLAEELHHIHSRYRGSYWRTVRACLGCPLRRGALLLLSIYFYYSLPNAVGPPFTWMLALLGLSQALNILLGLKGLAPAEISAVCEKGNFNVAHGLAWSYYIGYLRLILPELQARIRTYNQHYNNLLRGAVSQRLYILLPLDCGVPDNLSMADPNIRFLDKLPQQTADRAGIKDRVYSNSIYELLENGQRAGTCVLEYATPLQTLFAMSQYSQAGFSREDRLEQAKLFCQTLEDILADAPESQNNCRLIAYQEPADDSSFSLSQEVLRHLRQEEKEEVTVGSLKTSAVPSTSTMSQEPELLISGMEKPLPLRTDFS

Row | SMILES | EC50
1 | O=C(Nc1c[nH]c2ccccc12)c1cn(-c2ccc(C(F)(F)F)c(Cl)c2)cn1 [Compound 135, 1-(3-chloro-4-(trifluoromethyl)phenyl)-N-(1H-indol-3-yl)-1H-imidazole-4-carboxamide] | 200 to 1000 nM
2 | O=C(Nc1c[nH]c2ccccc12)c1cn(Cc2ccc(C(F)(F)F)c(Cl)c2)cn1 [Compound 136, 1-(3-chloro-4-(trifluoromethyl)benzyl)-N-(1H-indol-3-yl)-1H-imidazole-4-carboxamide] | 200 to 1000 nM
3 | O=C(Nc1c[nH]c2ccc(-c3ccc(CO)c(F)c3)cc12)c1cn(Cc2ccc(C(F)(F)F)cc2)cn1 [Compound 137, N-(5-(3-fluoro-4-(hydroxymethyl)phenyl)-1H-indol-3-yl)-1-(4-(trifluoromethyl)benzyl)-1H-imidazole-4-carboxamide] | 1000 to 5000 nM
4 | CC(C)n1cc(-c2ccc3[nH]cc(NC(=O)c4cn(Cc5ccc(C(F)(F)F)cc5)cn4)c3c2)cn1 [Compound 138, N-(5-(1-isopropyl-1H-pyrazol-4-yl)-1H-indol-3-yl)-1-(4-(trifluoromethyl)benzyl)-1H-imidazole-4-carboxamide] | 200 to 1000 nM
5 | CC(C)n1cc(-c2ccc3[nH]cc(NC(=O)c4cn(-c5ccc(C(F)(F)F)cc5)cn4)c3c2)cn1 [Compound 139, N-(5-(1-isopropyl-1H-pyrazol-4-yl)-1H-indol-3-yl)-1-(4-(trifluoromethyl)phenyl)-1H-imidazole-4-carboxamide] | 200 to 1000 nM
6 | Cc1cc(C(=O)Nc2c[nH]c3cc(F)c(F)cc23)nn1C1CCCCC1 [Compound 140, 1-cyclohexyl-N-(5,6-difluoro-1H-indol-3-yl)-5-methyl-1H-pyrazole-3-carboxamide] | 5000 to 100000 nM
7 | O=C(Nc1c[nH]c2cc(F)c(Cl)cc12)c1cnn(Cc2ccc(C(F)(F)F)cc2)c1 [Compound 141, N-(5-chloro-6-fluoro-1H-indol-3-yl)-1-(4-(trifluoromethyl)benzyl)-1H-pyrazole-4-carboxamide] | 40 to 200 nM
8 | O=C(Nc1c[nH]c2cc(F)c(F)cc12)c1nn(Cc2ccc(C(F)(F)F)cc2)c(=O)[nH]1 [Compound 142, N-(5,6-difluoro-1H-indol-3-yl)-5-oxo-1-(4-(trifluoromethyl)benzyl)-4,5-dihydro-1H-1,2,4-triazole-3-carboxamide] | 1000 to 5000 nM
9 | O=C(Nc1c[nH]c2cc(F)ccc12)c1cnn(Cc2ccc(C(F)(F)F)cc2)c1 [Compound 143, N-(6-fluoro-1H-indol-3-yl)-1-(4-(trifluoromethyl)benzyl)-1H-pyrazole-4-carboxamide] | 200 to 1000 nM
10 | O=C(Nc1c[nH]c2cnccc12)c1cnn(Cc2ccc(C(F)(F)F)cc2)c1 [Compound 144] | 5000 to 100000 nM
11 | O=C(Nc1c[nH]c2cc(F)c(F)cc12)c1cc(Cc2ccc(C(F)(F)F)cc2)[nH]n1 [Compound 145, N-(5,6-difluoro-1H-indol-3-yl)-5-(4-(trifluoromethyl)benzyl)-1H-pyrazole-3-carboxamide] | 200 to 1000 nM
12 | CC(C)n1cc(-c2cc(F)c3[nH]cc(NC(=O)c4cnn(Cc5ccc(C(F)(F)F)cc5)c4)c3c2)cn1 [Compound 146, N-(7-fluoro-5-(1-isopropyl-1H-pyrazol-4-yl)-1H-indol-3-yl)-1-(4-(trifluoromethyl)benzyl)-1H-pyrazole-4-carboxamide] | 200 to 1000 nM
13 | O=C(Nc1c[nH]c2cc(F)c(F)cc12)c1ccn(CCOc2cccnc2)n1 [Compound 147, N-(5,6-difluoro-1H-indol-3-yl)-1-(2-(pyridin-3-yloxy)ethyl)-1H-pyrazole-3-carboxamide] | 5000 to 100000 nM
14 | O=C(Nc1c[nH]c2cc(F)c(F)cc12)c1cc(CCc2ccc(C(F)(F)F)cc2)no1 [Compound 150, N-(5,6-difluoro-1H-indol-3-yl)-3-(4-(trifluoromethyl)phenethyl)isoxazole-5-carboxamide] | 40 to 200 nM
15 | O=C(Nc1c[nH]c2cc(F)c(F)cc12)c1cc(Cc2ccc(C(F)(F)F)cc2)no1 [Compound 151, N-(5,6-difluoro-1H-indol-3-yl)-3-(4-(trifluoromethyl)benzyl)isoxazole-5-carboxamide] | 200 to 1000 nM
16 | O=C(Nc1c[nH]c2cc(F)c(F)cc12)c1cc(CC2CCN(CC(F)(F)F)CC2)on1 [Compound 152, N-(5,6-difluoro-1H-indol-3-yl)-5-((1-(2,2,2-trifluoroethyl)piperidin-4-yl)methyl)isoxazole-3-carboxamide] | 200 to 1000 nM

Row | SMILES | EC50
17 | O=C(Nc1c[nH]c2cc(F)c(F)cc12)c1cc(Cc2ccc(C(F)(F)F)cc2)on1 [Compound 153, N-(5,6-difluoro-1H-indol-3-yl)-5-(4-(trifluoromethyl)benzyl)isoxazole-3-carboxamide] | 200 to 1000 nM
18 | O=C(Nc1c[nH]c2ccc(Oc3ccccc3)cc12)c1cnn(Cc2ccc(C(F)(F)F)cc2)c1 [Compound 154, N-(5-phenoxy-1H-indol-3-yl)-1-(4-(trifluoromethyl)benzyl)-1H-pyrazole-4-carboxamide] | 40 to 200 nM
19 | O=C(Nc1c[nH]c2cc(F)c(F)cc12)c1cc(CC2CCN(CC(F)(F)F)CC2)no1 [Compound 155, N-(5,6-difluoro-1H-indol-3-yl)-3-((1-(2,2,2-trifluoroethyl)piperidin-4-yl)methyl)isoxazole-5-carboxamide] | 40 to 200 nM
20 | O=C(Nc1c[nH]c2cc(F)c(F)cc12)c1cn(-c2ccnc(COCC(F)(F)F)c2)nn1 [Compound 156, N-(5,6-difluoro-1H-indol-3-yl)-1-(2-((2,2,2-trifluoroethoxy)methyl)pyridin-4-yl)-1H-1,2,3-triazole-4-carboxamide] | 1000 to 5000 nM
21 | O=C(Nc1c[nH]c2ccccc12)c1cn(-c2cnc(OCC(F)(F)F)c(F)c2)nn1 [Compound 157, 1-(5-fluoro-6-(2,2,2-trifluoroethoxy)pyridin-3-yl)-N-(1H-indol-3-yl)-1H-1,2,3-triazole-4-carboxamide] | 5000 to 100000 nM
22 | O=C(Nc1c[nH]c2ccc(Cl)cc12)c1cn(-c2cnc(NCC(F)(F)F)c(F)c2)nn1 [Compound 158, N-(5-chloro-1H-indol-3-yl)-1-(5-fluoro-6-((2,2,2-trifluoroethyl)amino)pyridin-3-yl)-1H-1,2,3-triazole-4-carboxamide] | 200 to 1000 nM
23 | O=C(Nc1c[nH]c2ccc(Cl)cc12)c1cn(-c2cnc(OCC(F)(F)F)c(F)c2)nn1 [Compound 159, N-(5-chloro-1H-indol-3-yl)-1-(5-fluoro-6-(2,2,2-trifluoroethoxy)pyridin-3-yl)-1H-1,2,3-triazole-4-carboxamide] | 200 to 1000 nM
24 | Cc1cc(Cn2cc(C(=O)Nc3c[nH]c4ccc(Cl)cc34)cn2)cnc1OCC(F)(F)F [Compound 160, N-(5-chloro-1H-indol-3-yl)-1-((5-methyl-6-(2,2,2-trifluoroethoxy)pyridin-3-yl)methyl)-1H-pyrazole-4-carboxamide] | 40 to 200 nM
25 | O=C(Nc1c[nH]c2cc(F)c(F)cc12)c1cnn(CCOc2cncc(C(F)(F)F)c2)c1 [Compound 161, N-(5,6-difluoro-1H-indol-3-yl)-1-(2-((5-(trifluoromethyl)pyridin-3-yl)oxy)ethyl)-1H-pyrazole-4-carboxamide] | 200 to 1000 nM
26 | Cn1nc(C(=O)Nc2c[nH]c3cc(F)c(Cl)cc23)cc1Cc1ccc(C(F)(F)F)cc1 [Compound 162, N-(5-chloro-6-fluoro-1H-indol-3-yl)-1-methyl-5-(4-(trifluoromethyl)benzyl)-1H-pyrazole-3-carboxamide] | 40 to 200 nM
27 | Cc1cc(Cn2cc(C(=O)Nc3c[nH]c4cc(F)c(F)cc34)cn2)cnc1OCC(F)(F)F [Compound 163, N-(5,6-difluoro-1H-indol-3-yl)-1-((5-methyl-6-(2,2,2-trifluoroethoxy)pyridin-3-yl)methyl)-1H-pyrazole-4-carboxamide] | 40 to 200 nM
28 | Cc1cc(-c2cc(C(=O)Nc3c[nH]c4cc(F)c(F)cc34)n[nH]2)ccc1Cl [Compound 164, 5-(4-chloro-3-methylphenyl)-N-(5,6-difluoro-1H-indol-3-yl)-1H-pyrazole-3-carboxamide] | 200 to 1000 nM
29 | Cc1cc(-n2cc(C(=O)Nc3c[nH]c4cc(F)c(F)cc34)nn2)cnc1OCC(F)(F)F [Compound 165, N-(5,6-difluoro-1H-indol-3-yl)-1-(5-methyl-6-(2,2,2-trifluoroethoxy)pyridin-3-yl)-1H-1,2,3-triazole-4-carboxamide] | 200 to 1000 nM
30 | O=C(Nc1c[nH]c2cc(F)c(Cl)cc12)c1cc(Cc2ccc(C(F)(F)F)cc2)n(C(F)F)n1 [Compound 166, N-(5-chloro-6-fluoro-1H-indol-3-yl)-1-(difluoromethyl)-5-(4-(trifluoromethyl)benzyl)-1H-pyrazole-3-carboxamide] | 200 to 1000 nM
31 | O=C(Nc1c[nH]c2cc(F)c(F)cc12)c1cc(-c2ccc(Cl)cc2)on1 [Compound 167, 5-(4-chlorophenyl)-N-(5,6-difluoro-1H-indol-3-yl)isoxazole-3-carboxamide] | 200 to 1000 nM
